{"source": "patent US4407794A", "about": "“Peptides and therapeutic applications thereof” (Centre National de la Recherche Scientifique (CNRS), priority 1980, dated 1983)", "key": {"rats [1]": {"tested_on": "rats", "assay": "Anti-diarrhea action, castor oil test", "type": "in vivo", "details": "10 rats, one hour prior to castor oil", "description": "This action was investigated by the castor oil test in rats, using the method according to Niemegeers and co-workers (Arzn.-Forsch. 22, 516-518, 1972).\nThe tests were conducted with male rats of 160-220 g body weight. After an 18 hr fasting period, each animal was orally administered 1 ml castor oil.\nThe test compounds, dissolved in water, were administered orally under a volume of 0.5 ml per 100 g body weight, one hour prior to the castor oil administration."}, "rats [2]": {"tested_on": "rats", "assay": "Locomotor activity after i.v. administration", "type": "in vivo", "details": "5 mg/kg i.v., male rats, group of 10; saline reference group 100 ± 15%", "description": "This preferential effect of δ-specific compound I on the dopaminergic receptors may be evidenced by i.v. administration of compound I and determination of the locomotor activity according to STINUS et al. Proc.Natl. Acad.Sci.USA 77, 2302 (1980). Each experiment was conducted on a group of 10 animals (male rats weighing 200-250 g) and the results obtained were compared with those of a reference group."}, "liberation of dopamine": {"tested_on": "liberation of dopamine", "assay": "Spontaneous liberation of dopamine, ICV injection tests", "type": "in vivo"}, "rats [3]": {"tested_on": "rats", "assay": "Naxolone susceptibility test, appearance of dependence (abstinence jumps)", "type": "in vivo", "details": "25 mg/kg 4 times a day for 10 days, Naxolone 10 mg/kg s.c. on the 10th day", "description": "This test makes it possible to evaluate the dependence induced by chronic administration of morphinic analgesics. It comprises inducing the dependence condition after 10 days of treatment by injection of a high doage of an antagonist: naxolone. Compound 1 was tested by ICV administration in rats, using the technique according to Frederickson et al., Res. Common.Pathol.Pharmacol. 5, 867(1973).\nThe results obtained are set forth in Table IV below and are compared with those obtained with morphine."}, "mice": {"tested_on": "mice", "assay": "Analgesic activity, hot-plate (65° C.) test, i.v.", "type": "in vivo", "details": "for Reaction time (s) 15' Licking: 15 minutes; for Reaction time (s) 30' Leap: 30 minutes; for Reaction time (s) 60' Adjusted jump: 60 minutes; for Reaction time (s) 90' Adjusted jump: 90 minutes", "description": "The compounds were tested in vivo by the intravenous route (i.v.) in mice, using the hot-plate (65° C.) test in mice, according to the method disclosed by JACOB & BLOZOVSKI (Arch.Int.Pharmacodyn. 1961, 33,296) by determination of the licking reflex at 15 minutes, of the leap at 30 minutes and of the adjusted jump at 60 and 90 minutes.\nDAla2 Met-Enkephalin was used as reference material."}, "[4]": {"type": "cell-based, mice", "details": "mouse vas deferens, electric stimulation; number of experiments in parentheses; read-out: VAS DEFERENS IC 50", "description": "(§1) The study of the action on μ receptors or on σ receptors was conducted as a function of the effect on the isolated ileum of guinea-pigs or on the vas deferens of mice.\n(§2) The action on the σ receptors was determined by the measure of the 50% inhibiting concentration (IC 50) of the contraction of the vas deferens of mice, induced by electric stimulation.\n(§3) The 50% inhibiting concentrations are expressed as nanomolar/liter concentrations.\n(§4) The ratio [formula] makes it possible to find out whether the test material is […] σ- specific. In said Table, the number of experiments is indicated between parentheses."}, "σ receptors": {"tested_on": "σ receptors", "type": "cell-based, mice", "details": "for VAS DEFERENS Relative action: % activity with respect to Met-Enkephalin=100; for R IC 50 ileum / IC 50 V.D.: ratio of ileum (μ) IC50 to vas deferens IC50", "description": "as §1, §2, §3, §4"}, "μ receptors": {"molecular_target": "μ receptors (Cavia porcellus, UniProt P97266)", "sequence (P97266 whole entry, looked up)": "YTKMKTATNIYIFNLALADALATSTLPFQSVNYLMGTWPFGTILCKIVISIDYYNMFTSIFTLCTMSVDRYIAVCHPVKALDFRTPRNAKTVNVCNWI", "assay": "Inhibition of the contraction of the isolated guinea-pig ileum induced by coaxial stimulation", "type": "cell-based, guinea-pigs", "details": "for ILEUM Relative action: % activity with respect to Met-Enkephalin=100; for IC50: isolated guinea-pig ileum, coaxial stimulation, number of experiments in parentheses, read-out: ILEUM IC 50", "description": "as §1\nThe action on the μ receptors was determined by the measure of the 50% inhibiting concentration (IC 50) of the contraction of the isolated ileum of guinea-pigs, induced by coaxial stimulation (PATON W.D.M., Brit.J. Pharm. 1959, 12, 119).\nThe 50% inhibiting concentrations are expressed as nanomolar/liter concentrations. Each product is tested with respect to Met-Enkephalin as reference material and the results obtained are also expressed as % activity with respect to Met-Enkephalin=100.\nas §4"}}, "note": "Peptide text beside a SMILES is read from it.", "data": [{"compound": "COc1ccc2c3c1O[C@H]1[C@@H](O)C=C[C@H]4[C@@H](C2)N(C)CC[C@@]341", "note": "[Codein base]", "values": [{"measurement": "Number of non-diarrheic animals 2 hours", "setting": "rats [1]; 3 mg/kg orally", "result": 7}, {"measurement": "Number of non-diarrheic animals 4 hours", "setting": "rats [1]; 3 mg/kg orally", "result": 4}, {"measurement": "Number of non-diarrheic animals 2 hours", "setting": "rats [1]; 10 mg/kg orally", "result": 10}, {"measurement": "Number of non-diarrheic animals 4 hours", "setting": "rats [1]; 10 mg/kg orally", "result": 7}]}, {"compound": "CC(C)C[C@H](NC(=O)[C@H](Cc1ccccc1)NC(=O)CNC(=O)[C@@H](CO)NC(=O)[C@@H](N)Cc1ccc(O)cc1)C(=O)N[C@H](C(=O)O)[C@@H](C)O", "note": "[Example 1, TyrD.SerGlyPheLeuThr]", "values": [{"measurement": "Locomotor activity", "setting": "rats [2]", "result": "65 ± 10", "unit": "%"}, {"measurement": "Increase of spontaneous liberation of dopamine", "setting": "liberation of dopamine; 5×10^-8 M", "result": 100, "unit": "%"}, {"measurement": "Abstinence test (jumps)", "setting": "rats [3]", "result": "10 ± 2", "unit": "jumps"}, {"measurement": "Reaction time (s) 15' Licking", "setting": "mice; 35 mg/kg i.v.", "result": "29.4 ± 3.2", "unit": "s"}, {"measurement": "Reaction time (s) 30' Leap", "setting": "mice; 35 mg/kg i.v.", "result": "30.1 ± 5.7", "unit": "s"}, {"measurement": "Reaction time (s) 60' Adjusted jump", "setting": "mice; 35 mg/kg i.v.", "result": "28.6 ± 7.2", "unit": "s"}, {"measurement": "Reaction time (s) 90' Adjusted jump", "setting": "mice; 35 mg/kg i.v.", "result": "32.2 ± 9.2", "unit": "s"}, {"measurement": "IC50", "setting": "[4]", "result": 0.8, "unit": "nM"}, {"measurement": "VAS DEFERENS Relative action", "setting": "σ receptors", "result": 2250, "unit": "%"}, {"measurement": "R IC 50 ileum / IC 50 V.D.", "setting": "σ receptors", "result": 796}, {"measurement": "ILEUM Relative action", "setting": "μ receptors", "result": 55, "unit": "%"}, {"measurement": "IC50", "setting": "μ receptors", "result": 637, "unit": "nM"}]}, {"compound": "CC(C)C[C@H](NC(=O)[C@H](Cc1ccccc1)NC(=O)CNC(=O)[C@@H](C)NC(=O)[C@@H](N)Cc1ccc(O)cc1)C(=O)N[C@H](C(=O)O)[C@@H](C)O", "note": "[Example 2, TyrD.AlaGlyPheLeuThr] (HELM PEPTIDE1{Y.[dA].G.F.L.T}$$$$V2.0)", "values": [{"measurement": "IC50", "setting": "μ receptors", "result": 500, "unit": "nM"}]}, {"compound": "CSCC[C@H](NC(=O)[C@H](Cc1ccccc1)NC(=O)CNC(=O)[C@@H](C)NC(=O)[C@@H](N)Cc1ccc(O)cc1)C(=O)NCCCCCNS(=O)(=O)c1cccc2c(N(C)C)cccc12", "note": "[Example 13 of patent FR 78 12 543]", "values": [{"measurement": "IC50", "setting": "[4]", "result": 650, "unit": "nM"}, {"measurement": "VAS DEFERENS Relative action", "setting": "σ receptors", "result": 2.7, "unit": "%"}, {"measurement": "R IC 50 ileum / IC 50 V.D.", "setting": "σ receptors", "result": 0.49}, {"measurement": "ILEUM Relative action", "setting": "μ receptors", "result": 110, "unit": "%"}]}, {"compound": "CCCC[C@H](NC(=O)[C@H](Cc1ccccc1)NC(=O)CNC(=O)[C@@H](CO)NC(=O)[C@@H](N)Cc1ccc(O)cc1)C(=O)N[C@H](C(=O)O)[C@@H](C)O", "note": "[Example 25, TyrD.SerGlyPheN.LeuThr]", "values": [{"measurement": "IC50", "setting": "μ receptors", "result": 1050, "unit": "nM"}]}, {"compound": "CC(C)C[C@@H](NC(=O)[C@H](Cc1ccccc1)NC(=O)CNC(=O)[C@@H](CO)NC(=O)[C@@H](N)Cc1ccc(O)cc1)C(=O)O", "note": "[Example 45, TyrD.SerGlyPheD.Leu] (HELM PEPTIDE1{Y.[dS].G.F.[dL]}$$$$V2.0)", "values": [{"measurement": "IC50", "setting": "μ receptors", "result": 247, "unit": "nM"}]}, {"compound": "CSCC[C@H](NC(=O)[C@H](Cc1ccccc1)NC(=O)CNC(=O)CNC(=O)[C@@H](N)Cc1ccc(O)cc1)C(=O)O", "note": "[Met-Enkephalin]", "values": [{"measurement": "IC50", "setting": "[4]", "result": "[…]"}, {"measurement": "VAS DEFERENS Relative action", "setting": "σ receptors", "result": 100, "unit": "%"}, {"measurement": "R IC 50 ileum / IC 50 V.D.", "setting": "σ receptors", "result": "[…]"}, {"measurement": "ILEUM Relative action", "setting": "μ receptors", "result": 100, "unit": "%"}, {"measurement": "IC50", "setting": "μ receptors", "result": 354, "unit": "nM"}]}, {"compound": "CN1CC[C@]23c4c5ccc(O)c4O[C@H]2[C@@H](O)C=C[C@H]3[C@H]1C5.Cl", "note": "[Morphin (hydrochloride)]", "values": [{"measurement": "Number of non-diarrheic animals 2 hours", "setting": "rats [1]; 1 mg/kg orally", "result": 9}, {"measurement": "Number of non-diarrheic animals 4 hours", "setting": "rats [1]; 1 mg/kg orally", "result": 4}, {"measurement": "Number of non-diarrheic animals 2 hours", "setting": "rats [1]; 3 mg/kg orally", "result": 10}, {"measurement": "Number of non-diarrheic animals 4 hours", "setting": "rats [1]; 3 mg/kg orally", "result": 6}]}, {"compound": "CN1CC[C@]23c4c5ccc(O)c4O[C@H]2[C@@H](O)C=C[C@H]3[C@H]1C5", "note": "[Morphin, morphine]", "values": [{"measurement": "Increase of spontaneous liberation of dopamine", "setting": "liberation of dopamine; 10^-6 M", "result": 50, "unit": "%"}, {"measurement": "Abstinence test (jumps)", "setting": "rats [3]", "result": "74 ± 11", "unit": "jumps"}]}, {"compound": "D.Ala2 Met-Enkephalin", "values": [{"measurement": "Reaction time (s) 15' Licking", "setting": "mice; 100 mg/kg i.v.", "result": "5.5 ± 1", "unit": "s"}, {"measurement": "Reaction time (s) 30' Leap", "setting": "mice; 100 mg/kg i.v.", "result": "5.5 ± 1.6", "unit": "s"}, {"measurement": "Reaction time (s) 60' Adjusted jump", "setting": "mice; 100 mg/kg i.v.", "result": "5.5 ± 1.2", "unit": "s"}, {"measurement": "Reaction time (s) 90' Adjusted jump", "setting": "mice; 100 mg/kg i.v.", "result": "5.6 ± 2", "unit": "s"}]}, {"compound": "DAla^2 Met.Enkamide", "values": [{"measurement": "Increase of spontaneous liberation of dopamine", "setting": "liberation of dopamine; 10^-6 M", "result": 100, "unit": "%"}]}]}
